Experimental data taken from patent publication US5698522A, “6-position modified decapeptide LHRH antagonists” (Abbott Laboratories, priority 1995, dated 1997).
Where a SMILES comes first, the peptide text is derived from it. Side-chain parts run from the residue outwards. [ ]: non-standard residue; d: D form. The star is where a group is joined. ξ: configuration not given here. NMePhe(4-NH(5-NH2-Trz-3-yl)) = CN[C@@H](Cc1ccc(Nc2n[nH]c(N)n2)cc1)C(=O)O; Shikimoyl = O=C(C1=C[C@@H](O)[C@@H](O)[C@H](O)C1)*; Biotin = O=C1N[C@H]2[C@H](CS[C@H]2CCCCC(=O)*)N1; ξTetrahydrofuran2carbonyl = O=C(C1CCCO1)*; dPhe(4-Cl) = N[C@H](Cc1ccc(Cl)cc1)C(=O)O; d2Nal = N[C@H](Cc1ccc2ccccc2c1)C(=O)O; Lys(iPr) = CC(C)NCCCC[C@H](N)C(=O)O; NMeY = CN[C@@H](Cc1ccc(O)cc1)C(=O)O; d3Pal = N[C@H](Cc1cccnc1)C(=O)O; Nicotinoyl = O=C(c1cccnc1)*; dOrn = NCCC[C@@H](N)C(=O)O; 2Furoyl = O=C(c1ccco1)*; X2 = O=C(c1ccoc1)*; azaGly = NNC(=O)O

Biological target: T1, LHRH receptor (Rattus norvegicus, UniProt P30969)
T1 construct: endogenous in cells
T1 sequence (P30969 1-327): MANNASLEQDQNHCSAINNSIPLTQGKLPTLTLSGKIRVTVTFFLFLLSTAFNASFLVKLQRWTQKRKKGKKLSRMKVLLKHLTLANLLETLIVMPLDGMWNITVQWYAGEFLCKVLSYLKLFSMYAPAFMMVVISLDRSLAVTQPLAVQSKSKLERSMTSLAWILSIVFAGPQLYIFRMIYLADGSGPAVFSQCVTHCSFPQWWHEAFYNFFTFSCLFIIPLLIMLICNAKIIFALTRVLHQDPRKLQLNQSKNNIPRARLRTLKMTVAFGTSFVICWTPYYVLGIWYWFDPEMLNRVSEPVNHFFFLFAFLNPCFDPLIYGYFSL
Test: in vitro LHRH antagonist potency (pA2) against the agonist leuprolide
Format: cell-based
Conditions: negative logarithm of the antagonist concentration which shifts the response curve produced by the agonist leuprolide to two-fold higher concentration
Description: Representative compounds of the present invention were evaluated in in vitro tests for receptor binding (pKI) and for LHRH antagonist potency (pA2). The tests employed the methods detailed in F. Haviv, et al., J. Med. Chem., 32: 2340-2344 (1989). The receptor binding affinities (pKI) are the negative logarithms of the equilibtirum dissociation constants (pA2) are the negative logarithms of the concentration of antagonist which shift the response curve roduced by the agonist leuprolide to two-fold higher concentration. (Leuprolide is the LHRH agonist having the structure 5-oxo-Pro^1 -His^2 -Trp^3 -Ser^4 -Tyr^5 -D-Leu^6 -Leu^7 -Arg^8 -Pro^9 -NHEt and is disclosed and claimed in U.S. Pat. No. 4,005,063.) Typically pA2 values of 9.5 or greater are indicative of good LHRH antagonist potency.

| Compound | Kb [nM] |
| --- | --- |
| CC(=O)N[C@H](Cc1ccc2ccccc2c1)C(=O)N[C@H](Cc1ccc(Cl)cc1)C(=O)N[C@H](Cc1cccnc1)C(=O)N[C@@H](CO)C(=O)N(C)[C@@H](Cc1ccc(O)cc1)C(=O)N[C@H](CCCCNC(=O)NNC(=O)C1CCCO1)C(=O)N[C@@H](CC(C)C)C(=O)N[C@@H](CCCCNC(C)C)C(=O)N1CCC[C@H]1C(=O)N[C@H](C)C(N)=O (stereo partly shown) [Example 5a, NAc-D2Nal^1 -D4ClPhe^2 -D3Pal^3 -Ser^4 -NMeTyr^5 -DLys(N-epsilon-Azagly-2-Tetrahydrofuroyl)^6 -Leu^7 -Lys(N-epsilon-Isopropyl)^8 -Pro^9 -DAla^10 NH2] (Ac-[d2Nal][dPhe(4-Cl)][d3Pal]S[NMeY][dK]([azaGly-ξTetrahydrofuran2carbonyl])L[Lys(iPr)]P[dA]-NH2) | 0.0191 |
| CC(=O)N[C@H](Cc1ccc2ccccc2c1)C(=O)N[C@H](Cc1ccc(Cl)cc1)C(=O)N[C@H](Cc1cccnc1)C(=O)N[C@@H](CO)C(=O)N(C)[C@@H](Cc1ccc(O)cc1)C(=O)N[C@H](CCCCNC(=O)CNC(=O)CNC(=O)c1ccco1)C(=O)N[C@@H](CC(C)C)C(=O)N[C@@H](CCCCNC(C)C)C(=O)N1CCC[C@H]1C(=O)N[C@H](C)C(N)=O [Example 57a, NAcD2Nal^1 -D4ClPhe^2 -D3Pal^3 -Ser^4 -NMeTyr^5 -DLys(N-epsilon-Gly-Gly-furoyl)^6 -Leu^7 -Lys(Isp)^8 -Pro^9 -DAla^10 NH2] (Ac-[d2Nal][dPhe(4-Cl)][d3Pal]S[NMeY][dK]([Gly-Gly-2Furoyl])L[Lys(iPr)]P[dA]-NH2) | 0.0145 |
| CC(=O)N[C@H](Cc1ccc2ccccc2c1)C(=O)N[C@H](Cc1ccc(Cl)cc1)C(=O)N[C@H](Cc1cccnc1)C(=O)N[C@@H](CO)C(=O)N(C)[C@@H](Cc1ccc(O)cc1)C(=O)N[C@H](CCCCNC(=O)[C@@H](C)NC(=O)C1=C[C@@H](O)[C@@H](O)[C@H](O)C1)C(=O)N[C@@H](CC(C)C)C(=O)N[C@@H](CCCNC(=N)N)C(=O)N1CCC[C@H]1C(=O)N[C@H](C)C(N)=O [Example 38a, NAc-D2Nal^1 -D4ClPhe^2 -D3Pal^3 -Ser^4 -NMeTyr^5 -DLys(N-epsilon-DAla-Shikimyl)^6 -Leu^7 -Arg^8 -Pro^9 -DAla^10 NH2] (Ac-[d2Nal][dPhe(4-Cl)][d3Pal]S[NMeY][dK]([dA-Shikimoyl])LRP[dA]-NH2) | 0.0282 |
| CC(=O)N[C@H](Cc1ccc2ccccc2c1)C(=O)N[C@H](Cc1ccc(Cl)cc1)C(=O)N[C@H](Cc1cccnc1)C(=O)N[C@@H](CO)C(=O)N(C)[C@@H](Cc1ccc(O)cc1)C(=O)N[C@H](CCCCNC(=O)CNC(=O)CCCC[C@@H]1SC[C@@H]2NC(=O)N[C@@H]21)C(=O)N[C@@H](CC(C)C)C(=O)N[C@@H](CCCCNC(C)C)C(=O)N1CCC[C@H]1C(=O)N[C@H](C)C(N)=O [Example 64, NAc-D2Nal^1 -D4ClPhe^2 -D3Pal^3 -Ser^4 -NMeTyr^5 -DLys(N-epsilon-Gly-Biotinyl)^6 -Leu^7 -Lys(N-epsilon-isopropyl)^8 -Pro^9 -DAla^10 NH2] (Ac-[d2Nal][dPhe(4-Cl)][d3Pal]S[NMeY][dK]([Gly-Biotin])L[Lys(iPr)]P[dA]-NH2) | 0.0115 |
| CC(=O)N[C@H](Cc1ccc2ccccc2c1)C(=O)N[C@H](Cc1ccc(Cl)cc1)C(=O)N[C@H](Cc1cccnc1)C(=O)N[C@@H](CO)C(=O)N(C)[C@@H](Cc1ccc(Nc2n[nH]c(N)n2)cc1)C(=O)N[C@H](CCCCNC(=O)NNC(=O)c1cccnc1)C(=O)N[C@@H](CC(C)C)C(=O)N[C@@H](CCCCNC(C)C)C(=O)N1CCC[C@H]1C(=O)N[C@H](C)C(N)=O [Example 46, NAc-D2Nal^1 -D4ClPhe^2 -D3Pal^3 -Ser^4 -NMePhe(Atz)^5 -DLys(N-epsilon-Azagly-Nicotinyl)^6 -Leu^7 -Lys(N-epsilon-Isopropyl)^8 -Pro^9 -DAla^10 NH2] (Ac-[d2Nal][dPhe(4-Cl)][d3Pal]S[NMePhe(4-NH(5-NH2-Trz-3-yl))][dK]([azaGly-Nicotinoyl])L[Lys(iPr)]P[dA]-NH2) | 0.011 |
| CC(=O)N[C@H](Cc1ccc2ccccc2c1)C(=O)N[C@H](Cc1ccc(Cl)cc1)C(=O)N[C@H](Cc1cccnc1)C(=O)N[C@@H](CO)C(=O)N(C)[C@@H](Cc1ccc(O)cc1)C(=O)N[C@H](CCCNC(=O)NNC(=O)c1cccnc1)C(=O)N[C@@H](CC(C)C)C(=O)N[C@@H](CCCCNC(C)C)C(=O)N1CCC[C@H]1C(=O)N[C@H](C)C(N)=O [Example 53a, NAc-D2Nal^1 -D4ClPhe^2 -D3Pal^3 -Ser^4 -NMeTyr^5 -DOrn(N-epsilon-Azagly-Nicotinyl)^6 -Leu^7 -Lys(N-epsilon-Isopropyl)^8 -Pro^9 -DAla^10 NH2] (Ac-[d2Nal][dPhe(4-Cl)][d3Pal]S[NMeY][dOrn]([azaGly-Nicotinoyl])L[Lys(iPr)]P[dA]-NH2) | 0.0331 |
| CC(=O)N[C@H](Cc1ccc2ccccc2c1)C(=O)N[C@H](Cc1ccc(Cl)cc1)C(=O)N[C@H](Cc1cccnc1)C(=O)N[C@@H](CO)C(=O)N(C)[C@@H](Cc1ccc(O)cc1)C(=O)N[C@H](CCCCNC(=O)CNC(=O)c1ccoc1)C(=O)N[C@@H](CC(C)C)C(=O)N[C@@H](CCCNC(=N)N)C(=O)N1CCC[C@H]1C(=O)N[C@H](C)C(N)=O [Example 51a, NAc-D2Nal^1 -D4ClPhe^2 -D3Pal^3 -Ser^4 -NMeTyr^5 -DLys(N-epsilon-Gly-3-Furoyl)^6 -Leu^7 -Arg^8 -Pro^9 -DAla^1 -NH2] (Ac-[d2Nal][dPhe(4-Cl)][d3Pal]S[NMeY][dK]([Gly-X2])LRP[dA]-NH2) | 0.011 |
| CC(=O)N[C@H](Cc1ccc2ccccc2c1)C(=O)N[C@H](Cc1ccc(Cl)cc1)C(=O)N[C@H](Cc1cccnc1)C(=O)N[C@@H](CO)C(=O)N(C)[C@@H](Cc1ccc(O)cc1)C(=O)N[C@H](CCCCNC(=O)CNC(=O)C1=C[C@@H](O)[C@@H](O)[C@H](O)C1)C(=O)N[C@@H](CC(C)C)C(=O)N[C@@H](CCCNC(=N)N)C(=O)N1CCC[C@H]1C(=O)N[C@H](C)C(N)=O [Example 17, NAc-D2Nal^1 -D4ClPhe^2 -D3Pal^3 -Ser^4 -NMeTyr^5 -DLys(N-epsilon-Gly-Shikimyl)^6 -Leu^7 -Arg^8 -Pro^9 -DAla^10 NH2] (Ac-[d2Nal][dPhe(4-Cl)][d3Pal]S[NMeY][dK]([Gly-Shikimoyl])LRP[dA]-NH2) | 0.00724 |
| CC(=O)N[C@H](Cc1ccc2ccccc2c1)C(=O)N[C@H](Cc1ccc(Cl)cc1)C(=O)N[C@H](Cc1cccnc1)C(=O)N[C@@H](CO)C(=O)N(C)[C@@H](Cc1ccc(O)cc1)C(=O)N[C@H](CCCCNC(=O)[C@@H](CO)NC(=O)c1cccnc1)C(=O)N[C@@H](CC(C)C)C(=O)N[C@@H](CCCCNC(C)C)C(=O)N1CCC[C@H]1C(=O)N[C@H](C)C(N)=O [Example 4c, NAc-D2Nal^1 -D4ClPhe^2 -D3Pal^3 -Ser^4 -NMeTyr^5 -DLys[N-epsilon-DSer-Nicotinyl]^6 -Leu^7 -Lys(N-epsilon-Isopropyl)^8 -Pro^9 -DAla^10 NH2] (Ac-[d2Nal][dPhe(4-Cl)][d3Pal]S[NMeY][dK]([dS-Nicotinoyl])L[Lys(iPr)]P[dA]-NH2) | 0.0158 |
| CC(=O)N[C@H](Cc1ccc2ccccc2c1)C(=O)N[C@H](Cc1ccc(Cl)cc1)C(=O)N[C@H](Cc1cccnc1)C(=O)N[C@@H](CO)C(=O)N(C)[C@@H](Cc1ccc(O)cc1)C(=O)N[C@H](CCCCNC(=O)[C@@H](CO)NC(=O)c1ccoc1)C(=O)N[C@@H](CC(C)C)C(=O)N[C@@H](CCCNC(=N)N)C(=O)N1CCC[C@H]1C(=O)N[C@H](C)C(N)=O [Example 65b, NAc-D2Nal^1 -D4ClPhe^2 -D3Pal^3 -Ser^4 -NMeTyr^5 -DLys(N-epsilon-DSer-3Furoyl)^6 -Leu^7 -Arg^8 -Pro^9 -DAla^10 NH2] (Ac-[d2Nal][dPhe(4-Cl)][d3Pal]S[NMeY][dK]([dS-X2])LRP[dA]-NH2) | 0.00229 |
